Test results: ChEMBL document CHEMBL4411294, “Synthesis and biological evaluation of cyanoaziridine phosphine oxides and phosphonates with antiproliferative activity” (Eur J Med Chem, 2019)

What was measured:
A549 = test: Cytotoxicity against human A549 cells assessed as reduction in cell viability after 48 hrs by CCK8 assay; type: functional, cell-based; conditions: A549, 48 h
HEK293 = test: Cytotoxicity against human HEK293 cells assessed as reduction in cell viability after 48 hrs by CCK8 assay; type: cell-based; conditions: HEK293, 48 h
MRC5 = test: Cytotoxicity against human MRC5 cells assessed as reduction in cell viability after 48 hrs by CCK8 assay; type: cell-based; conditions: MRC5, 48 h

Row | SMILES | IC50 (A549) [µM] | IC50 (HEK293) [µM] | IC50 (MRC5) [µM]
1 | C[C@@]1(C#N)N[C@H]1P(=O)(c1ccccc1)c1ccccc1 (relative stereo) | 2 | > 50 | > 50
2 | CC[C@]1(C#N)[C@H](P(=O)(c2ccccc2)c2ccccc2)N1S(=O)(=O)c1ccc(C)cc1 (relative stereo) | 2.3 | 43.2 | > 50
3 | Cc1ccc(S(=O)(=O)N2[C@@H](P(=O)(OC(C)C)OC(C)C)[C@]2(C)C#N)cc1 (relative stereo) | 3.4 | > 50 | > 50
4 | CC[C@@]1(C#N)N[C@H]1P(=O)(c1ccccc1)c1ccccc1 (relative stereo) | 3.3 | > 50 | > 50
5 | C[C@@]1(C#N)N[C@H]1P(=O)(O)O (relative stereo) | 8.5 | > 50 | > 50
6 | CCOP(=O)(OCC)[C@@H]1N(S(=O)(=O)c2ccc(C)cc2)[C@]1(C#N)CC (relative stereo) | 4.9 | > 50 | > 50
7 | CCOP(=O)(OCC)[C@@H]1N(S(=O)(=O)c2ccc(C)cc2)[C@@]1(C)C#N (relative stereo) | – | > 50 | > 50
8 | C[C@]1(C#N)[C@H](P(=O)(c2ccccc2)c2ccccc2)N1C(=O)OCc1ccccc1 (relative stereo) | 8.1 | 30.1 | > 50
9 | Cc1ccc(S(=O)(=O)N2[C@@H](P(=O)(c3ccccc3)c3ccccc3)[C@]2(C)C#N)cc1 (relative stereo) | 3.1 | > 50 | > 50
10 | COc1cccc2c1C(=O)c1c(O)c3c(c(O)c1C2=O)C[C@@](O)(C(=O)CO)C[C@@H]3O[C@H]1C[C@H](N)[C@H](O)[C@H](C)O1 [DOXORUBICIN] | – | – | > 50
